Source: patent publication US20080109040A1, “METHOD OF TREATING ARRHYTHMIAS” (priority 2002, published 2008)

Assays:
[1] = target: T1, late INa (Canis lupus familiaris, UniProt Q865W3); experiment: Late INa during action potential voltage clamp in canine midmyocardial myocytes; type: cell-based
[2] = target: T2, rapidly activating component of the delayed rectifier current (IKr) (Canis lupus familiaris, UniProt Q9TSZ3); experiment: Whole cell voltage clamp of IKr tail current in isolated canine left ventricular myocytes; type: cell-based
T2 construct: Myocytes were isolated by enzymatic dissociation from a wedge-shaped section of the left ventricular free wall; endogenous in cells; host or cells: isolated canine left ventricular myocytes (epicardial and midmyocardial)
T2 sequence (Q9TSZ3 1-1158): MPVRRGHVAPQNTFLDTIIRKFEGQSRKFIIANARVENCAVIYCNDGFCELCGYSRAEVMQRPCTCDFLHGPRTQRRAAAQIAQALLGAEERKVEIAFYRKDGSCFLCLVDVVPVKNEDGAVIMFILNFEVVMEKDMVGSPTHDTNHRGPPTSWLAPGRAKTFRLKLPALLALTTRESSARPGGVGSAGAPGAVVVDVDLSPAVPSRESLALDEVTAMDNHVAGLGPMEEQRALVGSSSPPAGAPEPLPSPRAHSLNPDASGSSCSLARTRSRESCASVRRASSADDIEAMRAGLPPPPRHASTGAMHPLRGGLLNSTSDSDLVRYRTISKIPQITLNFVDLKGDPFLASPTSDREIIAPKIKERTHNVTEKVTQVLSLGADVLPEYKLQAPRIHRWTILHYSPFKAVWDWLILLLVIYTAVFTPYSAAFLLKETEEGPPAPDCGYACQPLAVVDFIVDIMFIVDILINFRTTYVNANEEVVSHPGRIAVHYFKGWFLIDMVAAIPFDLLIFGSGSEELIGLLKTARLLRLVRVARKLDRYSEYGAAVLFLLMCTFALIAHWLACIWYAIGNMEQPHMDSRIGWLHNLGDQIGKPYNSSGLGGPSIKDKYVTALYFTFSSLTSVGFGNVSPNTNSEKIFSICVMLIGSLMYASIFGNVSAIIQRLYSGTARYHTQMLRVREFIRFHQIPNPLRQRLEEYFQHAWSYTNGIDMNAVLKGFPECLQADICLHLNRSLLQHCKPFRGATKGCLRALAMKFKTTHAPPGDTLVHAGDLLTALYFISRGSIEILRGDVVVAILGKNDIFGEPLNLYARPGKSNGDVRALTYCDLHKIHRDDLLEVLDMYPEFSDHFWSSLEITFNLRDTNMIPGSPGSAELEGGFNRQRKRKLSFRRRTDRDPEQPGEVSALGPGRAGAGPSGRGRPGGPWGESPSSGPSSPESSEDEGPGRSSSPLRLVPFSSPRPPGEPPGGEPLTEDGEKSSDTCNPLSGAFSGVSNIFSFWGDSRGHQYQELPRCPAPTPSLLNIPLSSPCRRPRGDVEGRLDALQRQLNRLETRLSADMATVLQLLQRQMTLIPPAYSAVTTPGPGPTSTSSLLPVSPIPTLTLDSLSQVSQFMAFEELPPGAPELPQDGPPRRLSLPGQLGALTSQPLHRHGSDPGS
Method: Myocytes were isolated by enzymatic dissociation from a wedge-shaped section of the left ventricular free wall supplied by the left circumflex coronary artery. Cells from the epicardial and midmyocardial regions of the left ventricle were used in this study.
Inward rectifier potassium current (IK), slow delayed rectifier potassium current (IKs), and rapid delayed rectifier potassium current (IKr) were recorded at 37° C. using conventional whole cell voltage clamp configuration.
IK1 was measured using an external solution containing 3 μM ouabain and 5 μM nifedipine to block the sodium-potassium pump and L-type calcium current (ICa,L), respectively. […] 5 μM nifedipine was present in the external solution when IKr was being recorded.
Isolated myocytes were placed in a temperature controlled 0.5 ml chamber (Medical Systems, Greenvale, N.Y.) on the stage of an inverted microscope and superfused at a rate of 2 ml/min. […]
IKr was measured as the time-dependent tail current elicited at a potential of −40 mV following a short 250 ms depolarizing pulse to 30 mV. Data are presented as mean ±S.E.M. IK1 was recorded during 900 msec voltage steps applied from a holding potential of −40 mV to test potentials ranging from −100 mV to 0 mV, and was characterized as the 5 msec average of the steady state current at the end of the test pulse.

[3] = target: T1, late INa; experiment: Late INa, perforated patch voltage clamp in isolated canine left ventricular myocytes; type: cell-based; details: 500 ms pulses to −30 mV at 1 Hz, read-out: Half-inhibition of late INa
[4] = Solubility of ranolazine in aqueous solutions as a function of pH; type: physicochemical
Method: In the following examples solutions of ranolazine in water or solutions with a pH above 6 are made up of ranolazine dihydrochloride. In the discussion portions of the following examples, concentrations of ranolazine found as a result of experiments are calculated as ranolazine free base.

T1 sequence (Q865W3 1-2013): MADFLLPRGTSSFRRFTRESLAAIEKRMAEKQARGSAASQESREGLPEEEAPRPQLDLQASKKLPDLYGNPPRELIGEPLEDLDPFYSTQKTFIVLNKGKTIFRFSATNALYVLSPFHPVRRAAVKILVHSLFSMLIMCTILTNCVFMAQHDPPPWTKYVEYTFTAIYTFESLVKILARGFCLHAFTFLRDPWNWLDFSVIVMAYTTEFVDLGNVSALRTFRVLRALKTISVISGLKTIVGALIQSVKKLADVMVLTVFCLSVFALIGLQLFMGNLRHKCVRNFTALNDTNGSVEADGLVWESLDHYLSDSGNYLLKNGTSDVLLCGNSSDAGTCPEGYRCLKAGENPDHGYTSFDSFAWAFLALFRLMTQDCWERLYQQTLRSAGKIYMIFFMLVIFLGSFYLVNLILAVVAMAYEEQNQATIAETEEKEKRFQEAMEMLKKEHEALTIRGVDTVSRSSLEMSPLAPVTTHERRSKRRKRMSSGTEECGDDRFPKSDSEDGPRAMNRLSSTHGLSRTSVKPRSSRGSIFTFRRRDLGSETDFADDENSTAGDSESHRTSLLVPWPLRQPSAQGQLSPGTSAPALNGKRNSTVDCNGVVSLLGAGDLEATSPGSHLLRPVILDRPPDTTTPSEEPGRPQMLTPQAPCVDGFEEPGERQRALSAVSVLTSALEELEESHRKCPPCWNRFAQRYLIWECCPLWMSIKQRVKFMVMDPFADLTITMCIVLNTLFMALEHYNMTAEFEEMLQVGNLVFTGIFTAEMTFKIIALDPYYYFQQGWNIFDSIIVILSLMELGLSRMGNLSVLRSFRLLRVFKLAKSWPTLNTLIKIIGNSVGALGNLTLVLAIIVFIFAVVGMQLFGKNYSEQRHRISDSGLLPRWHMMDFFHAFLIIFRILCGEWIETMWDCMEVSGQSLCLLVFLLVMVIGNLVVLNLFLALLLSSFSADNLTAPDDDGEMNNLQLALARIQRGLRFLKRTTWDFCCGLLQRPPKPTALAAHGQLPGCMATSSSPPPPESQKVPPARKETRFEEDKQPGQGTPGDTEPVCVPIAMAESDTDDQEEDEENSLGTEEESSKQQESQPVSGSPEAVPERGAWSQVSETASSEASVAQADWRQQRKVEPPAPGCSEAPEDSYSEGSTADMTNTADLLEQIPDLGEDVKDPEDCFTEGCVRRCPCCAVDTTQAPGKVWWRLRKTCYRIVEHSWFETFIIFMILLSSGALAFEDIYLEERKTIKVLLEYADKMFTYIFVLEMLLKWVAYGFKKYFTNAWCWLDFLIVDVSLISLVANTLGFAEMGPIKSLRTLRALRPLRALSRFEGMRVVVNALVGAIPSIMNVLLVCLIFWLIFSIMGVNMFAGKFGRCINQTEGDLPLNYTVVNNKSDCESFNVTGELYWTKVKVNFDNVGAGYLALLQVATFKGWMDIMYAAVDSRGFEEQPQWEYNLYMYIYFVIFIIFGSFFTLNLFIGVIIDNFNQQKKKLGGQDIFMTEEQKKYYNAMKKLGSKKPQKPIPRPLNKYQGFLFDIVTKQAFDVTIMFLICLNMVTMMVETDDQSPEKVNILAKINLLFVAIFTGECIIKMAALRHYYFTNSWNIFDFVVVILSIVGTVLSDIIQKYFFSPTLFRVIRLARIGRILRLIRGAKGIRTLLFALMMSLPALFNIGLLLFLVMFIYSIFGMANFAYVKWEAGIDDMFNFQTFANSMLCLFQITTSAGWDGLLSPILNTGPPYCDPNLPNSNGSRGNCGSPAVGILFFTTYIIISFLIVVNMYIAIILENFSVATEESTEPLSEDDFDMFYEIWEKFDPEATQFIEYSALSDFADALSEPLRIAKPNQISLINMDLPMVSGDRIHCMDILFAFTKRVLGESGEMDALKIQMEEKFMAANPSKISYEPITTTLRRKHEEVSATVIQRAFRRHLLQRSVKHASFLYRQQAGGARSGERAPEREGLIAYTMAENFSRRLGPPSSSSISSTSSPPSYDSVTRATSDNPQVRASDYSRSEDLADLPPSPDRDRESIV

COc1ccccc1OCC(O)CN1CCN(CC(=O)Nc2c(C)cccc2C)CC1 (racemic) [ranolazine, N-(2,6-dimethylphenyl)-4-[2-hydroxy-3-(2-methoxyphenoxy)propyl]-1-piperazineacetamide]
IC50 ([1]; BCL 2000 ms, first value (plateau, 20 mV), read-out: Half-inhibition of late INa): 5.9 µM | IC50 ([1]; BCL 2000 ms, second value (−28 mV), read-out: Half-inhibition of late INa): 20.8 µM | IC50 ([1]; basic cycle length 300 ms, read-out: Half-inhibition of INa,late): 11.5 µM | IC50 ([1]; basic cycle length 2000 ms, read-out: Half-inhibition of INa,late): 20.8 µM | Block of IKr ([2]; ranolazine 50 μM): almost completely blocked | IC50 ([2]; tail current at −40 mV after 250 msec pulse to 30 mV, read-out: IC50 for inhibition of IKr tail current): 11.5 µM | IC50 [3]: 21 µM | USP Solubility Class ([4]; solution pH 4.81): Freely Soluble | USP Solubility Class ([4]; solution pH 4.89): Soluble | USP Solubility Class ([4]; solution pH 4.90): Soluble | USP Solubility Class ([4]; solution pH 5.04): Soluble | USP Solubility Class ([4]; solution pH 5.35): Sparingly Soluble | USP Solubility Class ([4]; solution pH 5.82): Slightly soluble | USP Solubility Class ([4]; solution pH 6.46): Slightly soluble | USP Solubility Class ([4]; solution pH 6.73): Very slightly soluble | USP Solubility Class ([4]; solution pH 7.08): Very slightly soluble | USP Solubility Class ([4]; solution pH 7.59 (unbuffered water)): Very slightly soluble | USP Solubility Class ([4]; solution pH 7.79): Very slightly soluble | USP Solubility Class ([4]; solution pH 12.66): Very slightly soluble
